Results on 1 compound are retold here after paper PMC11059415 (Heliyon, 2024).

The experiment addresses T1, Sp-Fld (Sp-flavodoxin) (Streptococcus pneumoniae, UniProt Q8DPG4).
T1 sequence (Q8DPG4 1-147): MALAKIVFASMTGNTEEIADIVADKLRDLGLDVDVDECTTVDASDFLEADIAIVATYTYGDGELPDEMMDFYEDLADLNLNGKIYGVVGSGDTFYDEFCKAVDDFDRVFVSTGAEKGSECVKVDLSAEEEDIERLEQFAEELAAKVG
The experiment is described as follows: isothermal titration calorimetry. The format is binding. (Isothermal titration calorimetry measures the heat released or taken up as one component is titrated into another.)

In the case of `N[C@@H](Cc1cc(I)c(Oc2cc(I)c(O)c(I)c2)c(I)c1)C(=O)O` [Cp1, L-thyroxine], the Kd (usually the concentration at which binding is half-saturated) is 2500 ± 400 nM.
